Measured values taken from article PMC5703498, “Plant-type phytoene desaturase: Functional evaluation of structural implications” (PLoS ONE, 2017).

What was measured:
[1] = molecular target: T1, Phytoene desaturase (OsPDS-His6) (Oryza sativa, UniProt A2XDA1); assay: liposome-based desaturase assay with purified enzyme, competitive inhibition fit against DPQ, HPLC; assay type: biochemical
T1 construct: gene PDS1

[2] = molecular target: T2, Phytoene desaturase (OsPDS-His6) (Oryza sativa, UniProt A2XDA1, R300S); assay: liposome-based desaturase assay with purified mutant, DPQ x NFZ matrix, competitive inhibition fit; assay type: biochemical
T2 construct: gene PDS1
T2 sequence (A2XDA1 88-578 R300S): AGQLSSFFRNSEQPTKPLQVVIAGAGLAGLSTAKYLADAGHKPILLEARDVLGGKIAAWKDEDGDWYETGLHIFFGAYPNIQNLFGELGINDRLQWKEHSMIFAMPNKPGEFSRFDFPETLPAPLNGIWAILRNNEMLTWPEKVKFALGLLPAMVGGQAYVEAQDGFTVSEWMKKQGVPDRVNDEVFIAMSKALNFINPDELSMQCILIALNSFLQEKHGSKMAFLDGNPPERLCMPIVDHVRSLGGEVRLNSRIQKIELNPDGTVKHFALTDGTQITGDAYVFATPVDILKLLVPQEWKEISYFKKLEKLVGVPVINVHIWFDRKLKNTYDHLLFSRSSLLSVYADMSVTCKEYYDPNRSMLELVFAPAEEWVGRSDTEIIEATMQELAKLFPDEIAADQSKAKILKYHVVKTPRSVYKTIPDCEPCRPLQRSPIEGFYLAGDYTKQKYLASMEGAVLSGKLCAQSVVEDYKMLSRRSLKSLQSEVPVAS

T1 sequence (A2XDA1 88-578): as the sequence (A2XDA1 88-578 R300S) above, with S213R counted along it

CNc1cnn(-c2cccc(C(F)(F)F)c2)c(=O)c1Cl [NFZ, norflurazon]
Ki [1]: 230 ± 30 µM | Ki [2]: 1110 ± 360 µM
